As a reminder, the LD50 is the dose at which mortality reaches 50%. A low value points to greater toxicity.

This passage reports LD50 and Activity results from ChEMBL document CHEMBL1151407, “Bisbenzylisoquinoline Alkaloids” (1983).

Common to all, as to type: functional
The nature of assay [1]: In vivo antitumor activity against ascites carcinoma in mouse.
For assay [2], the system named is Ehrlich. The assay is described as follows: In vivo antitumor activity against Ehrlich ascite carcinoma in mouse.
The test system of assay [3] is Ehrlich. The assay is described as follows: In vivo antitumor activity against mouse Ehrlich ascite carcinoma cells xenografted in mouse assessed as suppression of tumor growth at 70 mg/kg.
In the next assay the test system is CCRF S-180. In words: In vivo antitumor activity against mouse S180 cells xenografted in mouse assessed as suppression of tumor growth at 70 mg/kg.
The test system of assay [4] is Lewis lung carcinoma cell line. The assay is described as follows: In vivo antitumor activity against mouse Lewis lung carcinoma cells xenografted in mouse assessed as suppression of tumor growth at 100 mg/kg.

As to `COc1ccc2cc1Oc1ccc(cc1)C[C@H]1c3cc(OC)c(OC)c(c3CCN1C)Oc1c(OC)c(OC)cc3c1[C@H](C2)N(C)CC3` [THALIDASINE], the results for the LD50 (in assay [1]; with Ehrlich [2]) were 300 mg/kg and 520 mg/kg, respectively. Further, the Activity in the assay with Ehrlich [3] stood at 50%; in the assay on CCRF S-180 it was 20%; in assay [4], 58%.
